Reference: patent US11242337B2, “Compounds useful for treating gastrointestinal tract disorders” (Ardelyx, Inc., priority 2017, dated 2022)

Key:
NHE3 [1] = target: T1, NHE3 (Homo sapiens, UniProt P48764); experiment: Cell-based assay of NHE-3 activity (persistent inhibition), human; conditions: human Persistence, 60 min incubation then washout
T1 construct: expressed in transfected cells
T1 sequence (P48764 26-834): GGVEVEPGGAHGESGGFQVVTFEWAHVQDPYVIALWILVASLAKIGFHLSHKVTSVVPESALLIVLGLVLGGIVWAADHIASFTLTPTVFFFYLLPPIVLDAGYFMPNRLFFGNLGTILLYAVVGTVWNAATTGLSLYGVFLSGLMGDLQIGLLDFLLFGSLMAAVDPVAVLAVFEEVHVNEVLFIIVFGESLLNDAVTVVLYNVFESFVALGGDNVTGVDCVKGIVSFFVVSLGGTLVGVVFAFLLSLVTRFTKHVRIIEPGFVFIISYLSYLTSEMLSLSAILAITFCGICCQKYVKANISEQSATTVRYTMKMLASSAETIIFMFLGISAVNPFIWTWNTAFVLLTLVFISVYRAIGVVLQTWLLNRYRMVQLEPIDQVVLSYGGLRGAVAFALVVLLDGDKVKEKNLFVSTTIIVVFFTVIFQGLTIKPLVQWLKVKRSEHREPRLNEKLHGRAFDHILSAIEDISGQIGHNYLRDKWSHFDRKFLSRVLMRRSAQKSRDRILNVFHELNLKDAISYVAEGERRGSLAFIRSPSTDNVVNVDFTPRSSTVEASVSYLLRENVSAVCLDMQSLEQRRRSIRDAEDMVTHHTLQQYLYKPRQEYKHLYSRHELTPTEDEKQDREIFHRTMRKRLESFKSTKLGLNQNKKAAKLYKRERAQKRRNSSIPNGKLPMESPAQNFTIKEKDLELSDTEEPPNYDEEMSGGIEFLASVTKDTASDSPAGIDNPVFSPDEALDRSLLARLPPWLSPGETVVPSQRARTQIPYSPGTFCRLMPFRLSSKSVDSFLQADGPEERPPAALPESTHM
T1 sequence (Q99653 2-195 partner limits assumed): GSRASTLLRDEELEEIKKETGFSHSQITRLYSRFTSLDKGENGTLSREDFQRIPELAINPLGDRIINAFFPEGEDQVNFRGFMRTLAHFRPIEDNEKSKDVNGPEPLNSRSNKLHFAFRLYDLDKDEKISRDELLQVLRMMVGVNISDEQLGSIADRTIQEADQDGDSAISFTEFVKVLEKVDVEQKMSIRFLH
How it was run: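 PS120 fibroblasts expressing human NHE3 with NHERF2 exposed to 0-30 μM compound for 60 min at RT, then washed out; cells acid-loaded by NH4Cl prepulse with BCECF-AM and Na+-free buffer. Na+-driven pH recovery started 10 min post-washout; initial rate of BCECF ratio change (FLIPR) taken as activity.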

NHE3 [2] = target: T1, NHE3; experiment: Cell-based assay of NHE-3 activity (pre-incubation inhibition), human; conditions: human Preincubation; for pIC50: 0-30 μM test compound
How it was run: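 PS120 fibroblasts stably expressing human NHE3 and NHERF2, loaded 30 min at 37 °C with 5 μM BCECF-AM in NH4Cl buffer, then acidified 10 min at room temperature in Na+-free buffer with 0–30 μM compound. Initial rate of BCECF fluorescence ratio change (FLIPR) per minute taken as Na+/H+ activity.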

Row | Structure (SMILES) | % inhibition (NHE3 [1]) | pIC50 (NHE3 [1]) | % inhibition (NHE3 [2]) | pIC50 (NHE3 [2]) | IC50 (NHE3 [1])
1 | C[C@H]1CN([C@H]2Cc3c(C#N)cc(Cl)cc3[C@@H]2Oc2ccc(S(=O)(=O)N[C@@H]3CCN(CCOCCNC(=O)NCCCCNC(=O)NCCOCCN4CC[C@@H](NS(=O)(=O)c5ccc(O[C@H]6c7cc(Cl)cc(C#N)c7C[C@@H]6N6CCN[C@@H](C)C6)cc5)C4)C3)cc2)CCN1 [Example 135] | C (>70%) | C (NHE3 pIC50 > 7) | C (>70%) | C (NHE3 pIC50 > 7) | –
2 | Cc1cc(S(=O)(=O)NCCOCCOCCNC(=O)NCCCCNC(=O)NCCOCCOCCNS(=O)(=O)c2ccc(O[C@H]3c4cc(Cl)cc(Cl)c4C[C@@H]3N3CCC[C@@H](N)C3)c(C)c2)ccc1O[C@H]1c2cc(Cl)cc(Cl)c2C[C@@H]1N1CCC[C@@H](N)C1 [Example 1, 1-[2-(2-[2-[(4-[[(1S,2S)-2-[(3R)-3-Aminopiperidin-1-yl]-4,6-dichloro-2,3-dihydro-1H-inden-1-yl]oxy]-3-methylbenzene)sulfonamido]ethoxy]ethoxy)ethyl]-3-[4-([[2-(2-[2-([4-[[(1S,2S)-2-[(3R)-3-aminopiperidin-1-yl]-4,6-dichloro-2,3-dihydro-1H-inden-1-yl]oxy]-3-methylbenzene)sulfonamido]ethoxy]ethoxy)ethyl]carbamoyl]amino)butyl]urea] | B (40-70%) | C (NHE3 pIC50 > 7) | C (>70%) | C (NHE3 pIC50 > 7) | –
3 | Cc1cc(S(=O)(=O)NCCCCCCCCNC(=O)NCCCCNC(=O)NCCCCCCCCNS(=O)(=O)c2ccc(O[C@H]3c4cc(Cl)cc(Cl)c4C[C@@H]3N3CCC[C@@H](N)C3)c(C)c2)ccc1O[C@H]1c2cc(Cl)cc(Cl)c2C[C@@H]1N1CCC[C@@H](N)C1 [Example 63, 3-[8-[(4-[[(1S,2S)-2-[(3R)-3-Aminopiperidin-1-yl]-4,6-dichloro-2,3-dihydro-1H-inden-1-yl]oxy]-3-methylbenzene)sulfonamido]octyl]-1-[4-[([8-[(4-[[(1S,2S)-2-[(3R)-3-aminopiperidin-1-yl]-4,6-dichloro-2,3-dihydro-1H-inden-1-yl]oxy]-3-methylbenzene)sulfonamide]octyl]carbamoyl)amino]butyl]urea] | B (40-70%) | – | B (40-70%) | C (NHE3 pIC50 > 7) | 100 to 1000 nM
4 | N[C@@H]1CCCN([C@H]2Cc3c(Cl)cc(Cl)cc3[C@@H]2Oc2ccc(S(=O)(=O)NCCOCCOCCNC(=O)NCCCCNC(=O)NCCOCCOCCNS(=O)(=O)c3ccc(O[C@H]4c5cc(Cl)cc(Cl)c5C[C@@H]4N4CCC[C@@H](N)C4)cc3F)c(F)c2)C1 [Example 103, 1-[2-(2-[2-[(4-[[(1S,2S)-2-[(3R)-3-Aminopiperidin-1-yl]-4,6-dichloro-2,3-dihydro-1H-inden-1-yl]oxy]-2-fluorobenzene)sulfonamido]ethoxy]ethoxy)ethyl]-3-[4-([[2-(2-[2-[(4-[[(1S,2S)-2-[(3R)-3-aminopiperidin-1-yl]-4,6-dichloro-2,3-dihydro-1H-inden-1-yl]oxy]-2-fluorobenzene)sulfonamido]ethoxy]ethoxy)ethyl]carbamoyl]amino)butyl]urea] | C (>70%) | C (NHE3 pIC50 > 7) | C (>70%) | C (NHE3 pIC50 > 7) | –
5 | CN(C)[C@@H]1CCCN([C@H]2Cc3c(Cl)cc(Cl)cc3[C@@H]2Oc2ccc(S(=O)(=O)NCCOCCOCCNC(=O)NCCCCNC(=O)NCCOCCOCCNS(=O)(=O)c3ccc(O[C@H]4c5cc(Cl)cc(Cl)c5C[C@@H]4N4CCC[C@@H](N(C)C)C4)cc3)cc2)C1 [Example 25] | C (>70%) | – | C (>70%) | – | –
6 | CN(C)[C@H]1Cc2c(Cl)cc(Cl)cc2[C@@H]1Oc1c(F)cc(S(=O)(=O)NCCOCCOCCNC(=O)NCCCCNC(=O)NCCOCCOCCNS(=O)(=O)c2cc(F)c(O[C@H]3c4cc(Cl)cc(Cl)c4C[C@@H]3N(C)C)c(F)c2)cc1F [Example 86] | C (>70%) | C (NHE3 pIC50 > 7) | C (>70%) | C (NHE3 pIC50 > 7) | –
7 | CN(C)[C@@H]1CCCN([C@H]2Cc3c(C#N)cc(Cl)cc3[C@@H]2Oc2ccc(S(=O)(=O)NCCOCCOCCNC(=O)NCCCCNC(=O)NCCOCCOCCNS(=O)(=O)c3ccc(O[C@H]4c5cc(Cl)cc(C#N)c5C[C@@H]4N4CCC[C@@H](N(C)C)C4)cc3)cc2)C1 [Example 121, 4-([(1S,2S)-6-Chloro-4-cyano-2-[(R)-3-(dimethylamino)piperidin-1-yl]-2,3-dihydro-1H-inden-1-yl]oxy)-N-[26-([4-([(1S,2S)-6-chloro-4-cyano-2-[(R)-3-(dimethylamino)piperidin-1-yl]-2,3-dihydro-1H-inden-1-yl]oxy)phenyl]sulfonamido)-10,17-dioxo-3,6,21,24-tetraoxa-9,11,16,18-tetraazahexacosyl]benzenesulfonamide] | A (NHE3 < 40%) | C (NHE3 pIC50 > 7) | B (40-70%) | C (NHE3 pIC50 > 7) | –
8 | Cc1cc(S(=O)(=O)NCCOCCOCCNC(=O)NCCCCNC(=O)NCCOCCOCCNS(=O)(=O)c2ccc(O[C@H]3c4cc(Cl)cc(F)c4C[C@@H]3N(C)C)c(C)c2)ccc1O[C@H]1c2cc(Cl)cc(F)c2C[C@@H]1N(C)C [Example 16] | B (40-70%) | C (NHE3 pIC50 > 7) | B (40-70%) | C (NHE3 pIC50 > 7) | –
9 | CN(C)[C@H]1Cc2c(Cl)cc(Cl)cc2[C@@H]1Oc1ccc(S(=O)(=O)N[C@H]2CCN(CCOCCNC(=O)NCCCCNC(=O)NCCOCCN3CC[C@H](NS(=O)(=O)c4ccc(O[C@H]5c6cc(Cl)cc(Cl)c6C[C@@H]5N(C)C)c(F)c4)C3)C2)cc1F [Example 111, 4-([(1S,2S)-4,6-Dichloro-2-(dimethylamino)-2,3-dihydro-1H-inden-1-yl]oxy)-N—[(S)-1-(20-[(S)-3-([4-([(1S,2S)-4,6-dichloro-2-(dimethylamino)-2,3-dihydro-1H-inden-1-yl]oxy)-3-fluorophenyl]sulfonamido)pyrrolidin-1-yl]-7,14-dioxo-3,18-dioxa-6,8,13,15-tetraazaicosyl)pyrrolidin-3-yl)-3-fluorobenzenesulfonamide; tetra(trifluoroacetate)] | C (>70%) | C (NHE3 pIC50 > 7) | C (>70%) | C (NHE3 pIC50 > 7) | –
10 | Cc1cc(S(=O)(=O)NCCOCCOCCNC(=O)NCCCCNC(=O)NCCOCCOCCNS(=O)(=O)c2ccc(O[C@H]3c4cc(Cl)cc(C#N)c4C[C@@H]3N(C)C)c(C)c2)ccc1O[C@H]1c2cc(Cl)cc(C#N)c2C[C@@H]1N(C)C [Example 18, 3-[2-(2-[2-[(4-[[(1S,2S)-6-Chloro-4-cyano-2-(dimethylamino)-2,3-dihydro-1H-inden-1-yl]oxy]-3-methylbenzene)sulfonamido]ethoxy]ethoxy)ethyl]-1-[4-([[2-(2-[2-[(4-[[(1S,2S)-6-chloro-4-cyano-2-(dimethylamino)-2,3-dihydro-1H-inden-1-yl]oxy]-3-methylbenzene)sulfonamido]ethoxy]ethoxy)ethyl]carbamoyl]amino)butyl]urea; bis(trifluoroacetic acid)] | B (40-70%) | C (NHE3 pIC50 > 7) | B (40-70%) | C (NHE3 pIC50 > 7) | –
11 | CN(C)[C@H]1Cc2c(OC(F)(F)F)cc(Cl)cc2[C@@H]1Oc1ccc(S(=O)(=O)NCCOCCOCCNC(=O)NCCCCNC(=O)NCCOCCOCCNS(=O)(=O)c2ccc(O[C@H]3c4cc(Cl)cc(OC(F)(F)F)c4C[C@@H]3N(C)C)cc2)cc1 [Example 14, 1-[2-(2-[2-[(4-[[(1S,2S)-6-Chloro-2-(dimethylamino)-4-(trifluoromethoxy)-2,3-dihydro-1H-inden-1-yl]oxy]benzene)sulfonamido]ethoxy]ethoxy)ethyl]-3-[4-([[2-(2-[2-[(4-[[(1S,2S)-6-chloro-2-(dimethylamino)-4-(trifluoromethoxy)-2,3-dihydro-1H-inden-1-yl]oxy]benzene)sulfonamido]ethoxy]ethoxy)ethyl]carbamoyl]amino)butyl]urea] | A (NHE3 < 40%) | – | B (40-70%) | – | –
